Laboratory results taken from patent US20170095578A1, “CT SCANS USING GADOLINIUM-BASED CONTRAST AGENT” (UNIVERSITY OF MASSACHUSETTS MEDICAL SCHOOL, priority 2014, published 2017).

Legend:
[1] = gadoxetate disodium-enhanced CT scan of a human patient; assay type: in vivo
Procedure: (§1) A patient was undergoing evaluation for living liver donation.
FIG. 7A is an enhanced CT scan image of their liver using gadoxetate disodium as a contract agent according to principles of the invention. […] In this particular patient the CT scan was obtained 99 minutes after the gadoxetate disodium-enhanced MRI shown in FIG. 7B, a relatively long interval to image gallbladder filling. A better contrast resolution is expected when using shorter interval. The highest concentration of contrast within the gallbladder, and therefore the best contrast resolution, is expected between 30 to 60 minutes from the time of intravenous injection of contrast.
The CT scan technique used included a slice thickness of 4.00 mm, and a field of view of 283.0 mm. The x-ray radiation was generated using 120 kV and a current of 182 mA, with a tube current of 182 mA and tube current-time product of 213 mAs.

[2] = gadoxetate disodium-enhanced MRI of the same patient; assay type: in vivo, human; details: MRI 20 minutes following intravenous administration
Procedure: as §1
FIG. 7B is a gadoxetate disodium-enhanced MRI image of the same patient. […] The MRI of FIG. 7B was obtained 20 minutes following intravenous administration of gadoxetate disodium.

## CCOc1ccc(CC(CN(CCN(CC(=O)[O-])CC(=O)[O-])CC(=O)[O-])N(CC(=O)[O-])CC(=O)[O-])cc1.[Gd+3].[Na+].[Na+] (stereo not drawn) [gadoxetate disodium, Gadoxetate disodium]
[1]; following intravenous injection
  gallbladder opacification under CT imaging conditions: clearly demonstrates gallbladder opacification
[1]; patient, arterial phase CT at 120 kV, 182 mA, 99 minutes after the gadoxetate disodium-enhanced MRI
  visualization of excreted hepatobiliary contrast in the gallbladder on CT: anti-dependant hyperdensity within the gallbladder fundus
[2]
  visualization of excreted contrast in the gallbladder on MRI: excreted contrast within the gallbladder lumen
